IC50 data for 4 compounds are collected here from US11130778B2, “CD73 inhibitors” (ORIC Pharmaceuticals, Inc., priority 2019, dated 2021).

SMILES strings stand for the structures.

The target of the assay is T1, CD73 (Homo sapiens, UniProt P21589).
T1 sequence (P21589 27-549): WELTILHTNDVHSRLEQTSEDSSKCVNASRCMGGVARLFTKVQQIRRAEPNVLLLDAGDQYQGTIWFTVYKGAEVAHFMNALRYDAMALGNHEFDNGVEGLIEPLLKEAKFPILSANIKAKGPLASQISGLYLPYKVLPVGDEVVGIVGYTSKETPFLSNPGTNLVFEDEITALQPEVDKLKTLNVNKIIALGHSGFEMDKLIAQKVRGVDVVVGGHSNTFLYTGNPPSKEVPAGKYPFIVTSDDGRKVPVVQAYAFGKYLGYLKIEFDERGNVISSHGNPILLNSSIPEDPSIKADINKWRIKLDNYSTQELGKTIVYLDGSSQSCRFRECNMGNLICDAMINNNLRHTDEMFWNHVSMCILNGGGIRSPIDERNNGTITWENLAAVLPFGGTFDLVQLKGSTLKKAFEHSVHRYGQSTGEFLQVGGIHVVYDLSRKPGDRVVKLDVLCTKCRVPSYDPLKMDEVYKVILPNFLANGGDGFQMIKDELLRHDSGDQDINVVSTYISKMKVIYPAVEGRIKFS
The assay can be described thus: Biochemical assay of CD73 inhibition (Malachite Green). Particulars: CD73 0.3208 nM, AMP 15 μM, Tris-HCl pH 7.4, Malachite Green absorbance readout; read-out: CD73_Biochem. In short, it runs like this: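 CD73 (0.3208 nM) preincubated with compound 15 min at RT in 25 mM Tris-HCl pH 7.4, 5 mM MgCl2, 0.01% Brij-35, 0.01% BSA, then AMP (15 μM) added for 10 min at RT. Released phosphate detected by Malachite Green absorbance. IC50 from 10-point ½-log titrations starting at 100 μM, in duplicate.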
For `O=P(O)(O)C(COCc1nnn[nH]1)(COCC1CC1)OC[C@H]1O[C@@H](n2ncc3c(NC4CCCC4)nc(Cl)nc32)[C@H](O)[C@@H]1O` (stereo in doubt) [Example 45, ((S)-1-((1H-tetrazol-5-yl)methoxy)-2-(((2R,3S,4R,5R)-5-(6-chloro-4-(cyclopentylamino)-1H-pyrazolo[3,4-d]pyrimidin-1-yl)-3,4-dihydroxytetrahydrofuran-2-yl)methoxy)-3-(cyclopropylmethoxy)propan-2-yl)phosphonic acid], the IC50 is at most 10 nM.

As for `COCC(OC[C@H]1O[C@@H](n2ncc3c(NC4CCCC4)nc(Cl)nc32)[C@H](O)[C@@H]1O)(C(=O)N(C)C)P(=O)(O)O` (stereo partly drawn) [Example 15, (2-(((2R,3S,4R,5R)-5-(6-chloro-4-(cyclopentylamino)-1H-pyrazolo[3,4-d]pyrimidin-1-yl)-3,4-dihydroxytetrahydrofuran-2-yl)methoxy)-1-(dimethylamino)-3-methoxy-1-oxopropan-2-yl)phosphonic acid], the IC50 was in the range of 10 to 100 nM.

With `O=P(O)(O)[C@](CO)(COCc1nn[nH]n1)OC[C@H]1O[C@@H](n2ncc3c(NC4CCCC4)nc(Cl)nc32)[C@H](O)[C@@H]1O` [Example 24, ((R)-1-((2H-tetrazol-5-yl)methoxy)-2-(((2R,3S,4R,5R)-5-(6-chloro-4-(cyclopentylamino)-1H-pyrazolo[3,4-d]pyrimidin-1-yl)-3,4-dihydroxytetrahydrofuran-2-yl)methoxy)-3-hydroxypropan-2-yl)phosphonic acid], the IC50 was at most 10 nM.

Consider `COCCOCC(COCc1nnn[nH]1)(OC[C@H]1O[C@@H](n2ncc3c(NC4CCCC4)nc(Cl)nc32)[C@H](O)[C@@H]1O)P(=O)(O)O` (stereo partly drawn) [Example 40, (1-((1H-tetrazol-5-yl)methoxy)-2-(((2R,3S,4R,5R)-5-(6-chloro-4-(cyclopentylamino)-1H-pyrazolo[3,4-d]pyrimidin-1-yl)-3,4-dihydroxytetrahydrofuran-2-yl)methoxy)-3-(2-methoxyethoxy)propan-2-yl)phosphonic acid], for which the IC50 was at most 10 nM.
